This is an account of results in patent US7271144B2, “Therapeutic fibrin-derived peptides and uses thereof” (Fibrex Medical Research & Development GmbH, priority 2000, dated 2007).

One experiment deals with lymphocytes. The experiment can be described thus: Adhesion and transmigration of pure lymphocytes on HUVEC on a collagen matrix. The format is cell-based, human. The following applies: for adhesion / migration: lymphocytes. On the procedure: (§1) Endothelial cells from human umbilical veins (HUVEC) were marked with a red fluorescent dye (Cell Tracker Orange, 1 μl/ml, Molecular Probes, Eugene, Oreg.) and were dispersed on a collagen matrix (Collaborative Biomedical Products, Bedford, Mass.). Upon confluence of the endothelial cells, peripheral mononuclear blood cells (PBMC) (10^5 cells per 25 mm^2) marked with a green fluorescent dye (Cell Tracker Green, 1 μl/ml, Molecular Probes of Messrs. Eugene, Origon) were superimposed. Thereafter, the cells were incubated at 37° C. for twelve hours.
(§2) Adhering cells that had transmigrated into the gel were photographed with a laser-scan microscope, were converted into pixels and were evaluated by means of an “NIH image” according to Gröger et al. (J. Immunol. Method 1999; 222: 101-109).
(§3) It was feasible to determine the number of adherent cells per 0.1 mm^2 such as mentioned under “adhesion”. It was feasible to determine the number of migrated cells per 0.04 mm^3 such as mentioned under “migration”. The mean value of three times three trials was evaluated together with the standard deviation.
Since PBMC substantially consists of a mixture of lymphocytes and monocytes, pure lymphocytes instead of PBMC (as in Examples 8-10) were used in Example 11.
100 μg of NDSK-uPA or 100 μg of NDSK-II, respectively, and Aalpha or Bbeta, respectively, were added to the collagen matrix according to Example 8 comprising endothelial cells and lymphocytes.
The proceedings were in accordance with Example 11, with pure lymphocytes being used. 100 μg of NDSK-uPA or 100 μg of NDSK-II, respectively, was added to the short peptide salts derived from Aalpha Gly Pro Arg (Pro)—NH2 acetate (Aalpha derivative) or derived from Bbeta Gly His Arg Pro-OH acetate (Bbeta derivative).

In the next experiment the test system is monocytes. The experiment can be described thus: Adhesion and transmigration of pure monocytes on HUVEC on a collagen matrix. The experiment is classed as cell-based, human. The protocol:
as §1, §2, §3
The proceedings were in accordance with Example 11, except for pure monocytes being used instead of lymphocytes. 100 μg of NDSK-uPA or 100 μg of NDSK-II, respectively, was added to peptide Aalpha, randomized Aalpha, Bbeta or randomized Bbeta.
The proceedings were in accordance with Example 12, with pure monocytes being used. […] of NDSK-uPA or 100 μg of NDSK-II, respectively, was added to the short peptide salts Aalpha Gly Pro Arg (Pro)—NH2 acetate (Aalpha derivative) or Bbeta Gly His Arg Pro-OH acetate (Bbeta derivative).

Experiment [1] deals with human skin transplanted onto the backs of SCID mice, human lymphocytes injected. Briefly: HU-SCID mouse model: inflammatory sites in transplanted human skin. The experiment is classed as in vivo. The following applies: 24 hours; for number of inflammatory sites: Example 3, 100 μg alone, tail vein, mean +/- SD. The protocol:
Human skin was transplanted onto the backs of SCID mice, and two weeks later human lymphocytes were injected into the peritoneum. The proceedings were according to Petzelbauer et al. (J. Invest. Dermatol. 1996, 107; 576-581). Then, fifteen mice thus prepared were injected in their tail veins with the following:
Twenty-four hours later, the human skin was removed and the number of inflammatory sites, expressed in cells per 0.3 mm^2, was evaluated and the mean value was determined with a standard deviation.

In experiment [2] the test system is peripheral mononuclear blood cells (PBMC). The experiment can be described thus: Adhesion and transmigration of PBMC on HUVEC on a collagen matrix. The experiment is classed as cell-based, human. The settings on record: for adhesion / migration: Example 10; for adhesion / migration / migration (migrated cells) / adhesion (adherent cells): PBMC; for migration (migrated cells) / adhesion (adherent cells): Example 8, 12 h. The protocol: as §1, §2, §3
100 μg of NDSK-II and Bbeta or Bbeta randomized were added to the collagen matrix according to Example 8 comprising the suspension of PBMC, and further proceedings were in accordance with Example 8.
100 μg of NDSK-II and Aalpha or Aalpha randomized were added to the collagen matrix according to Example 8 comprising the suspension of PBMC, and further proceedings were in accordance with Example 8.

Where [3] appears, read: Example 13, 100 μg of short peptide + 100 μg NDSK-II.
Where [4] appears, read: Example 13, 100 μg of short peptide + 100 μg NDSK-uPA.
Where [5] appears, read: Example 13, substance alone, 100 μg.
Where [6] appears, read: Example 14, 100 μg of short peptide + 100 μg NDSK-II.
Where [7] appears, read: Example 14, 100 μg of short peptide + 100 mg NDSK-uPA.
Setting [8] is: 10 μg of peptide + 100 μg NDSK-II.
Setting [9] is: 100 μg of peptide + 100 μg NDSK-II.
Setting [10] is: 1000 μg of peptide + 100 μg NDSK-II.
Setting [11] is: Example 11, 100 μg of peptide + 100 μg NDSK-II.
[12] abbreviates: Example 11, 100 μg of peptide + 100 μg NDSK-uPA.
Where [13] appears, read: Example 11, substance alone, 100 μg.
Where [14] appears, read: Example 12, 100 μg of peptide + 100 μg NDSK-II.
Setting [15] is: Example 12, 100 μg of peptide + 100 μg NDSK-uPA.
The mark [16] stands for this setting: Example 12, substance alone, 100 μg.

Where no end group is shown, it is not given here.

“Gly His Arg Pro-OH acetate (GHRP-OH; also: acetate salt) [Bbeta derivative, short peptide salt derived from Bbeta]”: the adhesion is recorded as 69 +/− 7 cells per 0.1 mm^2 with lymphocytes (setting [3]); 70 +/− 8 cells per 0.1 mm^2 in the experiment with lymphocytes (setting [4]); 58 +/− 10 cells per 0.1 mm^2 in the experiment with lymphocytes (setting [5]); 68 +/− 7 cells per 0.1 mm^2 in the experiment with monocytes (setting [6]); 61 +/− 11 cells per 0.1 mm^2 in the experiment with monocytes (setting [7]); 52 +/− 7 cells per 0.1 mm^2 in the experiment with monocytes (Example 14, substance alone). Besides, the migration in the experiment on lymphocytes (setting [3]) is reported as 14 +/− 5 cells per 0.04 mm^3; in the experiment on lymphocytes (setting [4]), 16 +/− 3 cells per 0.04 mm^3; with lymphocytes (setting [5]), 12 +/− 9 cells per 0.04 mm^3; with monocytes (setting [6]), 8 +/− 4 cells per 0.04 mm^3; in the experiment with monocytes (setting [7]), 8 +/− 3 cells per 0.04 mm^3; in the experiment on monocytes (Example 14, substance alone), 6 +/− 1 cells per 0.04 mm^3.
With “Gly Pro Arg (Pro)—NH2 acetate [Aalpha derivative]”, the adhesion is reported as 131 +/− 7 cells per 0.1 mm^2 in the experiment with lymphocytes (setting [3]); 134 +/− 4 cells per 0.1 mm^2 with lymphocytes (setting [4]); 77 +/− 4 cells per 0.1 mm^2 in the experiment with lymphocytes (setting [5]); 64 +/− 11 cells per 0.1 mm^2 with monocytes (setting [6]); 60 +/− 5 cells per 0.1 mm^2 with monocytes (setting [7]); 50 +/− 5 cells per 0.1 mm^2 in the experiment with monocytes (Example 14, substance alone). The migration with lymphocytes (setting [3]) is recorded as 49 +/− 6 cells per 0.04 mm^3; with lymphocytes (setting [4]), 48 +/− 5 cells per 0.04 mm^3; in the experiment with lymphocytes (setting [5]), 18 +/− 1 cells per 0.04 mm^3; in the experiment with monocytes (setting [6]), 8 +/− 2 cells per 0.04 mm^3; in the experiment with monocytes (setting [7]), 7 +/− 6 cells per 0.04 mm^3; in the experiment with monocytes (Example 14, substance alone) it was 4 +/− 4 cells per 0.04 mm^3.
Take “GPRVVERHQSACKDSDWPFCSDEDWNYK (cysteine pairing not given here) [amino acids 1 to 28 of the alpha chain of the fibrin]”: the “number of inflammatory sites” value in experiment [1] is on record as 4+/−1.1 cells per 0.3 mm^2. Also, in experiment [1] (Examples 4-7, 100 μg of peptide + 100 μg of human NDSK-II), the inflammatory sites is recorded as 21+/−2.2 per 0.3 mm^2. Also, the adhesion was 69 +/− 12 cells per 0.1 mm^2 in experiment [2] (setting [8]); 73 +/− 13 cells per 0.1 mm^2 in experiment [2] (setting [9]); 70 +/− 6 cells per 0.1 mm^2 in experiment [2] (setting [10]); 131 +/− 4 cells per 0.1 mm^2 in the experiment with lymphocytes (setting [11]); 131 +/− 4 cells per 0.1 mm^2 in the experiment on lymphocytes (setting [12]); 77 +/− 4 cells per 0.1 mm^2 in the experiment with lymphocytes (setting [13]). Also, the adhesion is listed as 68 +/− 10 cells per 0.1 mm^2 in the experiment with monocytes (setting [14]), 62 +/− 4 cells per 0.1 mm^2 with monocytes (setting [15]) and 59 +/− 6 cells per 0.1 mm^2 with monocytes (setting [16]). The migration in experiment [2] (setting [8]) is listed as 21 +/− 4 cells per 0.04 mm^3; in experiment [2] (setting [9]) it was 15 +/− 6 cells per 0.04 mm^3; in experiment [2] (setting [10]), 13 +/− 5 cells per 0.04 mm^3; in the experiment on lymphocytes (setting [11]), 44 +/− 4 cells per 0.04 mm^3; with lymphocytes (setting [12]) it was 40 +/− 3 cells per 0.04 mm^3; with lymphocytes (setting [13]) it was 18 +/− 1 cells per 0.04 mm^3. Moreover, the migration is listed as 9 +/− 6 cells per 0.04 mm^3 in the experiment with monocytes (setting [14]), 8 +/− 5 cells per 0.04 mm^3 in the experiment with monocytes (setting [15]) and 5 +/− 1 cells per 0.04 mm^3 with monocytes (setting [16]). Besides, in experiment [2] (Examples 9 and 10, with 100 μg NDSK-II), the “conclusion: blocking of NDSK-II-induced PBMC adhesion/migration” value was “blocks the migration of PBMC only partially”. The “conclusion: blocking of lymphocytic adhesion and migration induced by NDSK-II and NDSK-uPA” value in the experiment with lymphocytes (Example 11) is recorded as “no blocking activity”.

B1: FCB-2: negative control; 43 kD fibrinogen cleavage product, Aalpha-chain 148-208, Bbeta-chain 191-305 and gamma-chain 95-265 (protein)
chain 1: KVQHIQLLQKNVRAQLVDMKRLEVDIDIKIRSCRGSCSRALAREVDLKDYEDQQKQLEQVI
chain 2: IPTNLRVLRSILENLRSKIQKLESDVSAQMEYCRTPCTVSCNIPVVSGKECEEIIRKGGETSEMYLIQPDSSVKPYRVYCDMNTENGGWTVIQNRQDGSVDFGRKWDPYKQGFGN
chain 3: NPDESSKPNMIDAATLKSRKMLEEIMKYEASILTHDSSIRYLQEIYNSNNQKIVNLKEKVAQLEAQCQEPCKDTVQIHDITGKDCQDIANKGAKQSGLYFIKPLKANQQFLVYCEIDGSGNGWTVFQKRLDGSVDFKKNWIQYKEGFGHLSPTGTTEFWLGNEKIHLISTQ
Regarding B1, the “number of inflammatory sites” value in experiment [1] is listed as 9+/−2.1 cells per 0.3 mm^2. Further, the “migration (migrated cells)” value in experiment [2] (0.1 μg/ml) is listed as 6 +/− 4 cells per 0.04 mm^3; in experiment [2] (1.0 μg/ml), 3 +/− 2 cells per 0.04 mm^3; in experiment [2] (10.0 μg/ml), 5 +/− 4 cells per 0.04 mm^3. The “adhesion (adherent cells)” value in experiment [2] (0.1 μg/ml, mean +/- SD) is listed as 30 +/− 26 cells per 0.1 mm^2; in experiment [2] (1.0 μg/ml), 10 +/− 10 cells per 0.1 mm^2; in experiment [2] (10.0 μg/ml), 21 +/− 7 cells per 0.1 mm^2.

B2: NDSK: 63 kD fibrinogen fragment, N-terminal disulfide knot; Aalpha-chain 1-51, Bbeta-chain 1–118 and gamma-chain 1-78 (protein)
chain 1: ADSGEGDFLAEGGGVRGPRVVERHQSACKDSD
chain 2: QGVNDNEEGFFSARGHRPLDKKREEAPSLRPAPPPISGGGYRARPAKAAATQKKVERKAPDAGGCLHADPDLGVLCPTGCQLQEALLQ
chain 3: YVATRDNCCILDERFGSYCPTTCGIADFLSTYQTKVDKDLQSLEDILHQVEN
Turning to B2, the “migration (migrated cells)” value is recorded as 6 +/− 3 cells per 0.04 mm^3 in experiment [2] (0.1 μg/ml), 5 +/− 2 cells per 0.04 mm^3 in experiment [2] (1.0 μg/ml) and 6 +/− 3 cells per 0.04 mm^3 in experiment [2] (10.0 μg/ml). In addition, the “adhesion (adherent cells)” value is listed as 31 +/− 18 cells per 0.1 mm^2 in experiment [2] (0.1 μg/ml, mean +/- SD); 35 +/− 18 cells per 0.1 mm^2 in experiment [2] (1.0 μg/ml); 36 +/− 24 cells per 0.1 mm^2 in experiment [2] (10.0 μg/ml).
